Source: the CheMixHub viscosity set
± gives the uncertainty stated by the source.

Assay: xn = mol fraction of the nth substance listed

CCOC(=O)c1ccccc1 + COCCO
viscosity [mPa·s], 101 kPa
Details	x2 = 0.1045	x2 = 0.199	x2 = 0.2979	x2 = 0.4016	x2 = 0.5007	x2 = 0.6025	x2 = 0.6973	x2 = 0.7982	x2 = 0.8977
298.15 K	1.883 ± 0.16	1.824 ± 0.15	1.803 ± 0.15	1.757 ± 0.15	1.774 ± 0.15	1.752 ± 0.14	1.773 ± 0.15	1.761 ± 0.15	1.783 ± 0.15
303.15 K	1.703 ± 0.14	1.65 ± 0.14	1.631 ± 0.14	1.587 ± 0.13	1.598 ± 0.13	1.581 ± 0.13	1.592 ± 0.13	1.581 ± 0.13	1.602 ± 0.13
308.15 K	1.55 ± 0.13	1.501 ± 0.12	1.48 ± 0.12	1.441 ± 0.12	1.448 ± 0.12	1.431 ± 0.12	1.439 ± 0.12	1.431 ± 0.12	1.444 ± 0.12

CCOC(=O)c1ccccc1 + COCCOCCOC
viscosity [mPa·s], 101.33 kPa
Details	x2 = 0.1021	x2 = 0.2028	x2 = 0.3004	x2 = 0.4044	x2 = 0.5041	x2 = 0.6032	x2 = 0.7035	x2 = 0.8017	x2 = 0.9022
298.15 K	1.805 ± 0.021	1.694 ± 0.02	1.59 ± 0.019	1.485 ± 0.018	1.389 ± 0.017	1.301 ± 0.016	1.216 ± 0.015	1.134 ± 0.014	1.056 ± 0.013
303.15 K	1.629 ± 0.02	1.533 ± 0.018	1.442 ± 0.017	1.35 ± 0.016	1.266 ± 0.016	1.189 ± 0.015	1.111 ± 0.014	1.039 ± 0.013	0.967 ± 0.012
308.15 K	1.476 ± 0.018	1.39 ± 0.017	1.311 ± 0.016	1.231 ± 0.015	1.157 ± 0.014	1.088 ± 0.014	1.02 ± 0.013	0.957 ± 0.012	0.895 ± 0.012
313.15 K	1.342 ± 0.016	1.268 ± 0.016	1.198 ± 0.015	1.126 ± 0.014	1.062 ± 0.013	1 ± 0.013	0.94 ± 0.012	0.883 ± 0.011	0.829 ± 0.011
318.15 K	1.228 ± 0.015	1.161 ± 0.014	1.098 ± 0.014	1.035 ± 0.013	0.976 ± 0.012	0.922 ± 0.012	0.868 ± 0.011	0.818 ± 0.011	0.77 ± 0.01

CCC(C)CO (stereo not given) + COc1ccccc1
viscosity [mPa·s], 101.33 kPa
Details	x2 = 0.1005	x2 = 0.2004	x2 = 0.3003	x2 = 0.4012	x2 = 0.5001	x2 = 0.6005	x2 = 0.6996	x2 = 0.8001	x2 = 0.9003
303.15 K	2.761 ± 0.036	2.126 ± 0.028	1.665 ± 0.021	1.347 ± 0.017	1.149 ± 0.015	1.032 ± 0.013	0.968 ± 0.012	0.932 ± 0.011	0.912 ± 0.011
313.15 K	2.026 ± 0.027	1.601 ± 0.021	1.296 ± 0.017	1.084 ± 0.014	0.952 ± 0.012	0.868 ± 0.011	0.824 ± 0.01	0.803 ± 0.01	0.794 ± 0.01
323.15 K	1.552 ± 0.021	1.246 ± 0.016	1.022 ± 0.013	0.872 ± 0.011	0.784 ± 0.01	0.739 ± 0.009	0.718 ± 0.009	0.707 ± 0.009	0.698 ± 0.009

CCOC(=O)c1ccccc1 + COc1ccccc1
viscosity [mPa·s], 101 kPa
Details	x1 = 0.0786	x1 = 0.1616	x1 = 0.2448	x1 = 0.3356	x1 = 0.4336	x1 = 0.5357	x1 = 0.6386	x1 = 0.7505	x1 = 0.8709
303.15 K	0.973 ± 0.02	1.026 ± 0.02	1.085 ± 0.02	1.156 ± 0.021	1.229 ± 0.021	1.323 ± 0.022	1.416 ± 0.023	1.521 ± 0.023	1.631 ± 0.024
308.15 K	0.896 ± 0.019	0.949 ± 0.02	1.007 ± 0.02	1.071 ± 0.02	1.143 ± 0.021	1.224 ± 0.021	1.311 ± 0.022	1.404 ± 0.022	1.504 ± 0.023
313.15 K	0.805 ± 0.019	0.856 ± 0.019	0.908 ± 0.019	0.963 ± 0.02	1.026 ± 0.02	1.101 ± 0.02	1.174 ± 0.021	1.256 ± 0.021	1.342 ± 0.022

COC(=O)c1ccccc1O + CS(C)=O
303.15 K, 101 kPa
Details	viscosity [mPa·s]
x1 = 0.1215	1.932 ± 0.022
x1 = 0.1918	2.13 ± 0.025
x1 = 0.2697	2.186 ± 0.025
x1 = 0.3567	2.283 ± 0.026
x1 = 0.5628	2.356 ± 0.027
x1 = 0.6882	2.38 ± 0.027
x1 = 0.8323	2.403 ± 0.028

O=C(O)/C=C\C(=O)O + C[N+](C)(C)CCO.[Cl-]
viscosity [mPa·s], 101.3 kPa
Details	293.2 K	303.2 K	313.2 K
x2 = 0.49	–	8065 ± 1500	4196 ± 730
x2 = 0.597	7984 ± 1600	4891 ± 870	2579 ± 610
x2 = 0.669	4183 ± 730	2672 ± 450	1488 ± 250

Cc1cccc([N+](=O)[O-])c1 + Cc1ccc(C)cc1
308.15 K, 101.33 kPa
Details	viscosity [mPa·s]
x2 = 0.1004	1.322 ± 0.008
x2 = 0.2046	1.122 ± 0.007
x2 = 0.2963	1.004 ± 0.006
x2 = 0.4016	0.908 ± 0.006
x2 = 0.4954	0.846 ± 0.006
x2 = 0.6076	0.768 ± 0.005
x2 = 0.7023	0.706 ± 0.005
x2 = 0.8036	0.649 ± 0.004
x2 = 0.8975	0.6 ± 0.004

Cc1ccccc1[N+](=O)[O-] + Cc1ccc(C)cc1
308.15 K, 101.33 kPa
Details	viscosity [mPa·s]
x2 = 0.1044	1.342 ± 0.008
x2 = 0.2016	1.153 ± 0.007
x2 = 0.2968	1.034 ± 0.007
x2 = 0.4024	0.942 ± 0.006
x2 = 0.4938	0.879 ± 0.006
x2 = 0.6032	0.81 ± 0.005
x2 = 0.6951	0.754 ± 0.005
x2 = 0.8009	0.681 ± 0.005
x2 = 0.8955	0.624 ± 0.004

Cc1cccc([N+](=O)[O-])c1 + Cc1cccc(C)c1
308.15 K, 101.33 kPa
Details	viscosity [mPa·s]
x2 = 0.1017	1.33 ± 0.008
x2 = 0.2062	1.133 ± 0.007
x2 = 0.3032	1.014 ± 0.007
x2 = 0.4055	0.926 ± 0.006
x2 = 0.5001	0.861 ± 0.006
x2 = 0.6028	0.785 ± 0.005
x2 = 0.6999	0.72 ± 0.005
x2 = 0.8043	0.653 ± 0.004
x2 = 0.9007	0.59 ± 0.004

Cc1ccccc1[N+](=O)[O-] + Cc1cccc(C)c1
308.15 K, 101.33 kPa
Details	viscosity [mPa·s]
x2 = 0.1014	1.358 ± 0.008
x2 = 0.2022	1.154 ± 0.007
x2 = 0.3044	1.027 ± 0.007
x2 = 0.4036	0.938 ± 0.006
x2 = 0.499	0.87 ± 0.006
x2 = 0.6052	0.792 ± 0.005
x2 = 0.6913	0.735 ± 0.005
x2 = 0.8068	0.654 ± 0.004
x2 = 0.8993	0.596 ± 0.004

CCCCCN + Cc1ccccc1
303.15 K, 101 kPa
Details	viscosity [mPa·s]
x2 = 0.1128	0.556 ± 0.0048
x2 = 0.2313	0.5323 ± 0.0047
x2 = 0.3808	0.5104 ± 0.0045
x2 = 0.4933	0.5008 ± 0.0044
x2 = 0.5377	0.4969 ± 0.0044
x2 = 0.6473	0.4932 ± 0.0043
x2 = 0.7388	0.4938 ± 0.0043
x2 = 0.8447	0.4984 ± 0.0044
x2 = 0.9229	0.5071 ± 0.0045

CCOC(=O)c1ccccc1 + Cc1ccccc1
viscosity [mPa·s], 101 kPa
Details	298.15 K	303.15 K	313.15 K
x1 = 0.0488	–	0.577 ± 0.01	0.504 ± 0.009
x1 = 0.1223	–	0.652 ± 0.011	0.562 ± 0.01
x1 = 0.1524	0.6845 ± 0.018	–	–
x1 = 0.1712	–	0.701 ± 0.012	0.601 ± 0.01
x1 = 0.2201	–	0.749 ± 0.013	0.637 ± 0.011
x1 = 0.2923	–	0.823 ± 0.014	0.694 ± 0.012
x1 = 0.3425	–	0.875 ± 0.014	0.734 ± 0.012
x1 = 0.3548	0.9076 ± 0.024	–	–
x1 = 0.4176	–	0.954 ± 0.015	0.795 ± 0.013
x1 = 0.4918	–	1.035 ± 0.016	0.858 ± 0.014
x1 = 0.5675	–	1.123 ± 0.018	0.926 ± 0.015
x1 = 0.63	1.279 ± 0.034	–	–
x1 = 0.6436	–	1.22 ± 0.02	1.001 ± 0.016
x1 = 0.7352	1.452 ± 0.038	–	–
x1 = 0.7452	–	1.359 ± 0.021	1.109 ± 0.018
x1 = 0.8194	–	1.473 ± 0.023	1.198 ± 0.019
x1 = 0.8445	1.655 ± 0.044	–	–
x1 = 0.8969	–	1.605 ± 0.024	1.312 ± 0.02
x2 = 0.2273	1.495 ± 0.019	–	–
x2 = 0.5945	0.939 ± 0.012	–	–
x2 = 0.8392	0.679 ± 0.009	–	–
